In patent US10632177B2, “Myoblast differentiation promoter” (NITTA GELATIN INC., priority 2012, dated 2020):
Non-standard residues stand in square brackets, D forms with d. No end group written: not given here. Hyp = O=C(O)[C@@H]1C[C@@H](O)CN1

test system: C2C12 myoblast; assay: Myoblast differentiation promotion test in myoblast culture (Western blotting of differentiation markers); assay type: cell-based, mouse; settings: Western blot band, numerical value in relation to 100 = control, 100 μM final concentration, eight days exposure
Procedure: Myoblast Differentiation Promotion Test in Myoblast Culture
For culture of C2C12 myoblast derived from mouse, a D-MEM culture medium containing 10% FBS, 100 units/mL sodium penicillin G, 100 μg/mL streptomycin and 1.0 g/L NaHCO3 (D-MEM culture medium (10% FBS, +P/S)) was used. Culture was conducted in an incubator at 37° C. containing 95% air and 5% CO2. In the condition that C2C12 myoblast was 90% confluent, the culture medium was replaced by a D-MEM culture medium including 2% horse serum (HS), 100 units/mL sodium penicillin G, 100 μg/mL streptomycin and 1.0 g/L NaHCO3 (D-MEM culture medium (2% HS+P/S)), and then the D-MEM culture medium (2% HS+P/S) replacement was repeated every two days to lead to differentiation into myotube cells. The peptides of Examples 1 to 21 and Comparative Examples 1 to 3 were added in a final concentration of 100 μM to the culture medium every the culture medium replacement, and cells were continuously exposed thereto for eight days.
The Western blotting method was conducted in the following procedure. The cells used for protein measurement were washed twice with PBS at the time of recovery, and the cells were scraped with a cell scraper and transferred to a tube, and centrifuged at 4° C. and at 250×g for 3 minutes, and then PBS was completely removed. For each tube, the cells were suspended in 100 μL of a buffer (20 mM HEPES-NaOH (pH 7.5), 0.5% NP-40, 1 mM EDTA, 100 μM AEBSF, 1 μg/mL aprotinin, 10 μg/mL leupeptin, 1 mM DTT, 1 mM sodium ortho-vanadate, 10 mM sodium fluoride, 10 μM ammonium molybdate, 10 mM sodium pyrophosphate), and then crushed under ice cooling for 5 seconds three times for each sample by using an ultrasonic disperser, followed by quantification of the amount of a protein. Quantification of the amount of a protein was conducted according to the method of Bradford using bovine serum albumin as a standard protein. After end of SDS-PAGE, a blotting device was used to conduct electro-transferring at 1.5 mA per 1 cm^2 of a membrane for 1 hour on a PVDF membrane equilibrated with methanol and subjected to pre-wetting by infiltration with a transfer buffer (48 mM Tris, 39 mM glycine). After end of the transferring, the PVDF membrane was blocked with PBS (−) containing 6% skim milk for 1 hour. A primary antibody was diluted in the following manner, and an antigen-antibody reaction was conducted overnight at 4° C. A peroxidase-conjugated secondary antibody against each primary antibody was diluted in PBS (−) containing 6% skim milk in the ratios: mouse anti-myosin heavy chain monoclonal antibody (MF20) culture supernatant 1/2000, mouse anti-tropomyosin monoclonal antibody (CH1) culture supernatant 1/2000, rabbit anti-GAPDH polyclonal antibody 1/3000, peroxidase-conjugated anti-mouse IgG 1/5000, and peroxidase-conjugated anti-rabbit IgG 1/2000, allowed to react for 30 minutes, and washed three times with PBS (−) for 10 minutes. Then the membrane was immersed in Immobilon™ Western Chemiluminescent HRP Substrate for 3 minutes, and detected by LAS-4000 (GE Healthcare, Buckinghamshire, UK). A band was converted into numbers by imageJ, and expressed in a numerical value in relation to 100 which was the value of the control.

| Substance | Myosin heavy chain | Tropomyosin |
| --- | --- | --- |
| Ala-Hyp [Comparative Example 1, reference compound] | 62 | 44 |
| Pro-Ala [Example 6] | 131 | 169 |
| Hyp-Gly [Example 7] | 334 | 419 |
| Leu-Hyp [Example 3] | 143 | 195 |
| Ala-[Hyp]-Gly [Example 1] | 218 | 191 |
| Gly-Pro-[Hyp] [Example 5] | 217 | 165 |
| [Hyp]-Gly-Pro [Example 2] | 166 | 181 |
| Glu-Hyp [Example 4] | 214 | 140 |
| Pro-Hyp [Example 8] | 278 | 307 |
